Patent publication US6365616B1, “Methimazole derivatives and tautomeric cyclic thiones to treat autoimmune diseases” (Sentron Medical, Inc., priority 1998, dated 2002)

B1: γ-IFN: rat recombinant γ-interferon, 100 U/ml, used to increase MHC class I and class II expression in FRTL-5 cells (protein, UniProt P01581 23-156, looked up)
Interferon gamma: QGTLIESLESLKNYFNSSSMDAMEGKSLLLDIWRNWQKDGNTKILESQIISFYLRLFEVLKDNQAISNNISVIESHLITNFFSNSKAKKDAFMSIAKFEVNNPQIQHKAVNELIRVIHQLSPESSLRKRKRSRC

How the values were obtained:
[1] = system: HLA-DRα class II promoter; test: Luciferase assay, FRTL-5 cells stably transfected with HLA-DRα class II promoter-luciferase chimeras; assay type: cell-based; conditions: 40 hours; for inhibition at 10 µM / inhibition at 100 µM / inhibition at 1000 µM: FRTL-5, read-out: % inhibition of IFN-increased p(−137)LUC class II promoter activity; for inhibition at 10 µM / inhibition at 100 µM / inhibition at 1000 µM / % inhibition of IFN-increased p(−137)LUC class II promoter activity / Luciferase activity +γ-IFN: 100 U/ml γ-interferon; for inhibition at 10 µM / inhibition at 100 µM / inhibition at 1000 µM / % inhibition of IFN-increased p(−137)LUC class II promoter activity: 6H medium
Source text: Similarly, the HLA DRα promoter constructs, p(−176)CAT and p(−137)CAT, inserted into the pCAT-Basic vector were released by restriction enzyme digestion, purified from agarose gel using QIAEX (QIAGEN, Chatsworth, Calif.), and used as templates for the construction by PCR of inserts with a 5′ flanking Mlul restriction site. The PCR products were purified by phenol-chloroform extraction, digested with MluI and XbaI, purified from agarose gels using QIAEX (QIAGEN, Chatsworth, Calif.) and ligated in the MluI-NheI site of the PGL-2 basic vector (PROMEGA, Madison, Wis.) using the DNA ligation kit from TAKARA biomedicals (TAKARA SHUZO Co.). JM1I9 bacterial competent cells (PROMEGA, Madison, Wis.) were transformed with the ligation reaction and plated in agar plates for 12 h at 37° C. The colonies were picked and screened with minipreps using QIAprep spin plasmid kit (QIAGEN, Chatsworth, Calif.) and restriction enzyme digestion. The plasmids were then purified by CsCI gradient centrifugation.
The PD1-PGL-2 basic constructs and the Class II-PGL-2 basic constructs were stably transfected in the FRTL-5 cells using a Lipofectamine (GIBCO, Life Technologies, Inc.) method. Near confluent cells in 6H medium were cotransfected with 20 μg of plasmid DNA and 2 μg of a pcDNA3neo or a pPUR selection vector (CLONTECH, Palo Alto, Calif.). After 24-48 hours, 400 μg/ml of G418 (GIBCO, Life Technologies, Inc.) or 10 μM of puromycin (SIGMA) were added to the medium. After 3 weeks the antibiotic-resistant colonies were cloned by limiting dilution and screened to determine their interferon sensitivity. At least 5 cell lines of each construct were isolated, each of whose activity was increased by adding 100 U/ml γ interferon to the medium of the cells. The following data (Tables 10-13) were obtained with one clone of each of the class I or class II-luciferase chimera, but were representative of at least three other clones of each.
Luciferase activity was measured using the Luciferase assay system (PROMEGA, Madison, Wis.). Briefly, treated or untreated cells from a 100 mm culture dish were washed with PBS, scraped and collected in microfuge tubes. The pellet was dissolved in 100 μl 1× reporter lysis buffer and incubated at room temperature for 15 minutes. Cells were frozen in dry ice plus ethanol and thawed in water at room temperature. After vortexing for 10 sec, tubes were centrifuged at 12,000×g for 5 min. Twenty μl of the supernatant were mixed with 100 μl of Luciferase assay reagent and immediately placed in a luminometer. Light was measured for a period of 10 sec after a 2 sec delay.
Treatment of cells, maintained either in the presence of TSH or its absence, with 100 U/ml interferon, increased class I and class II promoter activity (Table 10). In this experiment FRTL-5 cells were grown to 80% confluency in 6H medium with TSH then treated with 100 U/ml γ-interferon, 5 mM MMI or both together. Luciferase activity was measured after 40 hours as described. Several points are notable. First, interferon increases both class I and class II promoter activity in the stable transfectants. Second, MMI inhibits both interferon-increased class I and interferon-increased class II promoter activity.

[2] = system: MHC class II antigen expression; test: Flow cytometry of IFN-increased class II antigen expression in FRTL-5 cells; assay type: cell-based, rat; conditions: for Concentration to inhibit IFN-increased antigen expression, Class II: 100 U/ml γ-interferon, 6H medium (TSH), 40 hours
Method: […] 13 and 14. Cells were stained with a fluorescein isothiocyanate conjugated class II-specific monoclonal antibody to RT1.B (clone OX-6, Sera Labs, UK) for 60 min at 4° C., washed twice with Dulbecco's phosphate buffered saline, and subjected to laser flow cytometry.
In this experiment 10^6 cells were incubated with MHC class II or MHC class I-specific antibodies as described (Montani, V., et al., ibid (1998b); Saji, M., et al., ibid (1992a); Balducci-Silano, P. L., et al., Endocrinology 139:2309-2313 (1998)). After 30 min on ice, cells were washed with phosphate buffered saline at pH 7.4 and incubated for 30 min with fluorescein-isothiocyanate (FITC)-conjugated antibodies then analyzed by flow cytometry on a FACScan Cytometer using CellQuest software (Becton Dickinson).
The concentration needed to achieve suppression of the interferon induced class I or class II surface expression was determined by testing different concentrations of the compounds (Table 18). Like all other assays, the order of effectiveness was compound 10>11>7 or 8>2>MMI>3.

Molecule	inhibition at 10 µM ([1]; 10 μM) [%]	inhibition at 100 µM ([1]; 100 μM) [%]	inhibition at 1000 µM ([1]; 1 mM) [%]	Concentration to inhibit IFN-increased antigen expression, Class II [2]	also measured
Cn1ccnc1S [Compound 1, 1-Methylimidazole-2-thiol]	0	0	37 ± 10	5000 µM	Luciferase activity + 5 mM MMI ([1]; −137 HLA-DRα-LUC): 103 ± 6 % Control; Luciferase activity + 5 mM MMI ([1]; −167 HLA-DRα-LUC): 99 ± 5 % Control; endogenous class II antigen expression on the cell surface (flow cytometry, FIG. 12) ([2]; 5 mM MMI with 100 U/ml γ-IFN, 48 hours): decreased endogenous class II antigen expression
Cc1ncc([N+](=O)[O-])n1CCO [Compound 2, 2-Methyl-5-nitro-1-imidazole ethanol]	0	7 ± 6	65 ± 9	1500 ± 1000 µM	
Sc1ncc[nH]1 [Compound 3, 2-Mercaptoimidazole]				No Inhibition	
CSc1nccn1C [Compound 7, S-Methylmethimazole]	0	30 ± 7	68 ± 10	405 ± 15 µM	
Cn1ccn(C)c1=S [Compound 8, N-Methylmethimazole]				439 ± 93 µM	% inhibition of IFN-increased p(−137)LUC class II promoter activity ([1]; 10 μM): 0%; % inhibition of IFN-increased p(−137)LUC class II promoter activity ([1]; 100 μM): 43 ± 5%; % inhibition of IFN-increased p(−137)LUC class II promoter activity ([1]; 1 mM): 84 ± 9%
Cn1c(-c2ccccc2)cnc1S [Compound 10, 5-Phenylmethimazole]	43 ± 20	80 ± 7	92 ± 10	54 ± 11 µM	
B1					Luciferase activity +γ-IFN ([1]; −137 HLA-DRα-LUC): 695 ± 42 % Control; Luciferase activity +γ-IFN ([1]; −167 HLA-DRα-LUC): 790 ± 45 % Control
